Assay results as given in US20230093099A1, “COMPOUNDS AND METHODS OF TREATING CANCERS” (CULLGEN (SHANGHAI), INC., priority 2019, published 2023).

Tested on: RS4;11 cells
Test: Cell viability assay (CellTiter-Glo) in RS4;11 cells
Assay type: cell-based
Details: Homo sapiens, 72 h; RS4;11 cells; cell viability, 3 days, CellTiter-Glo; read-out: IC50
In short: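 RS4;11 cells seeded at 5000 per well, exposed for 3 days to 8- or 12-point 3-fold serial dilutions. Viability read by CellTiter-Glo luminescence; IC50 fitted by nonlinear least-squares regression.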

| SMILES | IC50 [nM] |
| --- | --- |
| O=C1CCC(n2c(=O)n(CCCCCCC(=O)N3CCC(n4cc(-c5cnc6cccc(-c7cc(F)c(CN8CCOCC8)c(F)c7)c6n5)cn4)CC3)c3ccccc32)C(=O)N1 (stereo not drawn) [JA-279, 3-(3-(7-(4-(4-(8-(3,5-Difluoro-4-(morpholinomethyl)phenyl)quinoxalin-2-yl)-1H-pyrazol-1-yl)piperidin-1-yl)-7-oxoheptyl)-2-oxo-2,3-dihydro-1H-benzo[d]imidazol-1-yl)piperidine-2,6-dione] | > 500 |
| Cc1cnc(Nc2ccc(N3CCN(CC(=O)NCCCCCCCNc4cccc5c4C(=O)N(C4CCC(=O)NC4=O)C5=O)CC3)cc2)nc1Nc1cccc(S(=O)(=O)NC(C)(C)C)c1 (stereo not drawn) [JA-095, 2-(4-(4-((4-((3-(N-(tert-Butyl)sulfamoyl)phenyl)amino)-5-methylpyrimidin-2-yl)amino)phenyl)piperazin-1-yl)-N-(7-((2-(2,6-dioxopiperidin-3-yl)-1,3-dioxoisoindolin-4-yl)amino)heptyl)acetamide] | 122 |
| Cc1cnc(Nc2ccc(N3CCN(CC(=O)NCCOCCOCCC(=O)N[C@H](C(=O)N4C[C@H](O)C[C@H]4C(=O)NCc4ccc(-c5scnc5C)cc4)C(C)(C)C)CC3)cc2)nc1Nc1cccc(S(=O)(=O)NC(C)(C)C)c1 [JA-219, (2S,4R)-1-((S)-14-(tert-butyl)-1-(4-(4-((4-((3-(N-(tert-butyl)sulfamoyl)phenyl)amino)-5-methylpyrimidin-2-yl)amino)phenyl)piperazin-1-yl)-2,12-dioxo-6,9-dioxa-3,13-diazapentadecan-15-oyl)-4-hydroxy-N-(4-(4-methylthiazol-5-yl)benzyl)pyrrolidine-2-carboxamide] | > 10000 |
| Cc1cnc(Nc2ccc(N3CCN(CC(=O)NCCCCCCNc4ccc5c(c4)C(=O)N(C4CCC(=O)NC4=O)C5=O)CC3)cc2)nc1Nc1cccc(S(=O)(=O)NC(C)(C)C)c1 (stereo not drawn) [JA-245, 2-(4-(4-((4-((3-(N-(tert-butyl)sulfamoyl)phenyl)amino)-5-methylpyrimidin-2-yl)amino)phenyl)piperazin-1-yl)-N-(6-((2-(2,6-dioxopiperidin-3-yl)-1,3-dioxoisoindolin-5-yl)amino)hexyl)acetamide] | 150 |
| Cc1ncsc1-c1ccc(CNC(=O)[C@@H]2C[C@@H](O)CN2C(=O)[C@@H](NC(=O)CCCNC(=O)CN2CCC(n3cc(-c4cnc5cccc(-c6cc(F)c(CN7CCOCC7)c(F)c6)c5n4)cn3)CC2)C(C)(C)C)cc1 [JA-152, (2S,4R)-1-((S)-2-(4-(2-(4-(4-(8-(3,5-Difluoro-4-(morpholinomethyl)phenyl)quinoxalin-2-yl)-1H-pyrazol-1-yl)piperidin-1-yl)acetamido)butanamido)-3,3-dimethylbutanoyl)-4-hydroxy-N-(4-(4-methylthiazol-5-yl)benzyl)pyrrolidine-2-carboxamide] | > 10000 |
| O=C1CCC(N2C(=O)c3ccc(NCCOCCOCCOCCOCCC(=O)N4CCC(n5cc(-c6cnc7cccc(-c8cc(F)c(CN9CCOCC9)c(F)c8)c7n6)cn5)CC4)cc3C2=O)C(=O)N1 (stereo not drawn) [JA-185, 5-((15-(4-(4-(8-(3,5-Difluoro-4-(morpholinomethyl)phenyl)quinoxalin-2-yl)-1H-pyrazol-1-yl)piperidin-1-yl)-15-oxo-3,6,9,12-tetraoxapentadecyl)amino)-2-(2,6-dioxopiperidin-3-yl)isoindoline-1,3-dione] | > 10000 |
| Cc1ncsc1-c1ccc(CNC(=O)[C@@H]2C[C@@H](O)CN2C(=O)[C@@H](NC(=O)CNC(=O)CN2CCC(n3cc(-c4cnc5cccc(-c6cc(F)c(CN7CCOCC7)c(F)c6)c5n4)cn3)CC2)C(C)(C)C)cc1 [JA-158, (2S,4R)-1-((S)-2-(2-(2-(4-(4-(8-(3,5-Difluoro-4-(morpholinomethyl)phenyl)quinoxalin-2-yl)-1H-pyrazol-1-yl)piperidin-1-yl)acetamido)acetamido)-3,3-dimethylbutanoyl)-4-hydroxy-N-(4-(4-methylthiazol-5-yl)benzyl)pyrrolidine-2-carboxamide] | > 10000 |
| Cc1cnc(Nc2ccc(N3CCN(CC(=O)NCCOCCOCCNc4ccc5c(c4)C(=O)N(C4CCC(=O)NC4=O)C5=O)CC3)cc2)nc1Nc1cccc(S(=O)(=O)NC(C)(C)C)c1 (stereo not drawn) [JA-238, 2-(4-(4-((4-((3-(N-(tert-butyl)sulfamoyl)phenyl)amino)-5-methylpyrimidin-2-yl)amino)phenyl)piperazin-1-yl)-N-(2-(2-(2-((2-(2,6-dioxopiperidin-3-yl)-1,3-dioxoisoindolin-5-yl)amino)ethoxy)ethoxy)ethyl)acetamide] | 723 |
| CS(=O)(=O)c1ccc(-c2cccc3nc(Nc4ccc(N5CCN(C(=O)CCOCCOCCOCCNc6ccc7c(c6)C(=O)N(C6CCC(=O)NC6=O)C7=O)CC5)cc4)nn23)cc1 (stereo not drawn) [JA-200, 2-(2,6-Dioxopiperidin-3-yl)-5-((2-(2-(2-(3-(4-(4-((5-(4-(methylsulfonyl)phenyl)-[1,2,4]triazolo[1,5-a]pyridin-2-yl)amino)phenyl)piperazin-1-yl)-3-oxopropoxy)ethoxy)ethoxy)ethyl)amino)isoindoline-1,3-dione] | 403 |
| Cc1ncsc1-c1ccc(CNC(=O)[C@@H]2C[C@@H](O)CN2C(=O)[C@@H](NC(=O)CCOCCOCCOCCOCCOCCC(=O)N2CCN(c3ccc(Nc4nc5cccc(-c6ccc(S(C)(=O)=O)cc6)n5n4)cc3)CC2)C(C)(C)C)cc1 [JA-071, (2S,4R)-1-((S)-2-(tert-Butyl)-22-(4-(4-((5-(4-(methylsulfonyl)phenyl)-[1,2,4]triazolo[1,5-a]pyridin-2-yl)amino)phenyl)piperazin-1-yl)-4,22-dioxo-7,10,13,16,19-pentaoxa-3-azadocosanoyl)-4-hydroxy-N-(4-(4-methylthiazol-5-yl)benzyl)pyrrolidine-2-carboxamide] | 960 |
| Cc1ncsc1-c1ccc(CNC(=O)[C@@H]2C[C@@H](O)CN2C(=O)[C@@H](NC(=O)CCOCCOCCOCCOCCOCCC(=O)N2CCC(n3cc(-c4cnc5cccc(-c6cc(F)c(CN7CCOCC7)c(F)c6)c5n4)cn3)CC2)C(C)(C)C)cc1 [JA-044, (2S,4R)-1-[(2S)-2-[3-[2-[2-[2-[2-[3-[4-[4-[8-[3,5-Difluoro-4-(morpholinomethyl)phenyl]quinoxalin-2-yl]pyrazol-1-yl]-1-piperidyl]-3-oxo-propoxy]ethoxy]ethoxy]ethoxy]ethoxy]propanoylamino]-3,3-dimethyl-butanoyl]-4-hydroxy-N-[[4-(4-methylthiazol-5-yl)phenyl]methyl]pyrrolidine-2-carboxamide] | > 10000 |
| Cc1ncsc1-c1ccc(CNC(=O)[C@@H]2C[C@@H](O)CN2C(=O)[C@@H](NC(=O)CCCCCCC(=O)N2CCC(n3cc(-c4cnc5cccc(-c6cc(F)c(CN7CCOCC7)c(F)c6)c5n4)cn3)CC2)C(C)(C)C)cc1 [JA-052, (2S,4R)-1-[1 (2S)-2-[[8-[4-[4-[8-[3,5-Difluoro-4-(morpholinomethyl)phenyl]quinoxalin-2-yl]pyrazol-1-yl]-1-piperidyl]-8-oxo-octanoyl]amino]-3,3-dimethyl-butanoyl]-4-hydroxy-N-[[14-(4-methylthiazol-5-yl)phenyl]methyl]pyrrolidine-2-carboxamide] | > 10000 |
| Cc1ncsc1-c1ccc(CNC(=O)[C@@H]2C[C@@H](O)CN2C(=O)[C@@H](NC(=O)CCCCCCCC(=O)N2CCN(c3ccc(Nc4nc5cccc(-c6ccc(S(C)(=O)=O)cc6)n5n4)cc3)CC2)C(C)(C)C)cc1 [JA-065, (2S,4R)-1-((S)-3,3-Dimethyl-2-(9-(4-(4-((5-(4-(methylsulfonyl)phenyl)-[1,2,4]triazolo[1,5-a]pyridin-2-yl)amino)phenyl)piperazin-1-yl)-9-oxononanamido)butanoyl)-4-hydroxy-N-(4-(4-methylthiazol-5-yl)benzyl)pyrrolidine-2-carboxamide] | 872 |
| Cc1cnc(Nc2ccc(N3CCN(CC(=O)NCCCCCCCNc4ccc5c(c4)C(=O)N(C4CCC(=O)NC4=O)C5=O)CC3)cc2)nc1Nc1cccc(S(=O)(=O)NC(C)(C)C)c1 (stereo not drawn) [JA-246, 2-(4-(4-((4-((3-(N-(tert-butyl)sulfamoyl)phenyl)amino)-5-methylpyrimidin-2-yl)amino)phenyl)piperazin-1-yl)-N-(7-((2-(2,6-dioxopiperidin-3-yl)-1,3-dioxoisoindolin-5-yl)amino)heptyl)acetamide] | 229 |
| CS(=O)(=O)c1ccc(-c2cccc3nc(Nc4ccc(N5CCN(C(=O)CNc6ccc7c(c6)C(=O)N(C6CCC(=O)NC6=O)C7=O)CC5)cc4)nn23)cc1 (stereo not drawn) [JA-194, 2-(2,6-Dioxopiperidin-3-yl)-5-((2-(4-(4-((5-(4-(methylsulfonyl)phenyl)-[1,2,4]triazolo[1,5-a]pyridin-2-yl)amino)phenyl)piperazin-1-yl)-2-oxoethyl)amino)isoindoline-1,3-dione] | > 10000 |
| O=C1CCC(N2Cc3ccc(C#CCCCCC(=O)N4CCC(n5cc(-c6cnc7cccc(-c8cc(F)c(CN9CCOCC9)c(F)c8)c7n6)cn5)CC4)cc3C2=O)C(=O)N1 (stereo not drawn) [JA-259, 3-(6-(7-(4-(4-(8-(3,5-Difluoro-4-(morpholinomethyl)phenyl)quinoxalin-2-yl)-1H-pyrazol-1-yl)piperidin-1-yl)-7-oxohept-1-yn-1-yl)-1-oxoisoindolin-2-yl)piperidine-2,6-dione] | > 10000 |
| O=C1CCC(N2C(=O)c3ccc(CCCCCCCN4CCC(n5cc(-c6cnc7cccc(-c8cc(F)c(CN9CCOCC9)c(F)c8)c7n6)cn5)CC4)cc3C2=O)C(=O)N1 (stereo not drawn) [JA-265, 5-(7-(4-(4-(8-(3,5-Difluoro-4-(morpholinomethyl)phenyl)quinoxalin-2-yl)-1H-pyrazol-1-yl)piperidin-1-yl)heptyl)-2-(2,6-dioxopiperidin-3-yl)isoindoline-1,3-dione] | 1350 |
| Cc1ncsc1-c1ccc(CNC(=O)[C@@H]2C[C@@H](O)CN2C(=O)[C@@H](NC(=O)CCCCCNC(=O)CN2CCN(c3ccc(Nc4nc5cccc(-c6ccc(S(C)(=O)=O)cc6)n5n4)cc3)CC2)C(C)(C)C)cc1 [JA-122, (2S,4R)-1-((S)-3,3-Dimethyl-2-(6-(2-(4-(4-((5-(4-(methylsulfonyl)phenyl)-[1,2,4]triazolo[1,5-a]pyridin-2-yl)amino)phenyl)piperazin-1-yl)acetamido)hexanamido)butanoyl)-4-hydroxy-N-(4-(4-methylthiazol-5-yl)benzyl)pyrrolidine-2-carboxamide] | > 10000 |
